Reference: US11434242B2, “Dopamine-b-hydroxylase inhibitors” (BIAL-PORTELA & Cª, S.A., priority 2017, dated 2022)

Molecular target: T1, Dopamine beta hydroxylase (Homo sapiens, UniProt P09172)
T1 construct: 125 μl of plasma; tissue Instituto Português do Sangue Transplantação; host or cells: human plasma from healthy donors
T1 sequence (P09172 40-617 limits assumed): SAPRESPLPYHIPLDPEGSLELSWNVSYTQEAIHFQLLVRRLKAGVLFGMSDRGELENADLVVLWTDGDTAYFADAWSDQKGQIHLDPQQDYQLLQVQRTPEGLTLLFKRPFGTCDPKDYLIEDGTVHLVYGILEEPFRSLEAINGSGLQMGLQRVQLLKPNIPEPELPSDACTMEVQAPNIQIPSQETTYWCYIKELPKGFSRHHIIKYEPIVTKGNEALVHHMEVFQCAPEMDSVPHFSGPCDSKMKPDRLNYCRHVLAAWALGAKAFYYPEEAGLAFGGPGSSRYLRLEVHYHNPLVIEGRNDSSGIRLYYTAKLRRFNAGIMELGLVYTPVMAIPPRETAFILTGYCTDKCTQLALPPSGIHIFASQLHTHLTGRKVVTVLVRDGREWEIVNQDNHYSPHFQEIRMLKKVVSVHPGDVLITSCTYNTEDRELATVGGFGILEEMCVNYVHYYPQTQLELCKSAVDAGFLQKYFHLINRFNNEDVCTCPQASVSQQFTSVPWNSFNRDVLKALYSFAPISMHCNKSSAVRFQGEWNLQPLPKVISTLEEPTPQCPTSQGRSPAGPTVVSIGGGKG
Assay: Dopamine beta hydroxylase activity in human plasma
Assay type: biochemical
Settings: for Plasma (0.1 μM), activity in % of control: inhibitor 0.1 μM; for Plasma (1 μM), activity in % of control: inhibitor 1 μM
Procedure: Furthermore, the ability of a compound to inhibit DβH activity may be assessed in human plasma using the following assay. […]. Dopamine beta hydroxylase activity in human plasma was measured by the method of Nagatsu and Udenfriend (Nagatsu, T. and Udenfriend, S. “Photometric assay of dopamine-μ-hydroxylase activity in human blood.” Clin. Chem. 18(9) 980-983, 1972) with minor modifications. Catalase, N-ethylmaleimide, tyramine, disodium fumarate, pargyline, sodium acetate, ascorbic acid, copper sulfate and octopamine were obtained from Sigma Chemical Co., St. Louis, Mo. 63178. Human plasma samples were obtained from healthy donors (Instituto Português do Sangue Transplantação, Centro Sangue Transplantação, Porto, Portugal). From date of collection, plasma was stored at −80° C. until use. Test compounds were initially prepared in dimethyl sulfoxide at a concentration of 10 mM and diluted in dimethyl sulfoxide to the required concentrations. Test compounds were further diluted in ultrapure water to a concentration 20-fold to that of the final concentration to be tested. Final concentrations of test compounds were 10, 100 and 1000 nM. The various reagents used to make up the incubation buffer were premixed and consisted of the following components: sodium acetate buffer (1 M, pH 5.0, 18 ml), sodium fumarate (0.2 M, 4.5 ml), ascorbic acid (0.2 M, 4.5 ml, freshly prepared), pargyline (20 mM, freshly prepared, 4.5 ml), N-ethylmaleimide (0.2 M, 4.5 ml), catalase (10 000 U/ml, 9 ml), copper sulfate (20 μM, 4.5 ml) and 4.5 ultrapure water. The standard incubation mixture (total volume, 950 μl) contained: 50 μL of compound or vehicle (dimethyl sulfoxide 2%); 700 μL of incubation buffer; 125 μl of plasma (or saline for blank reaction or standard curve); 75 μl of saline. The reaction mixture was placed in water bath, shaking at 37° C. and pre-incubated for 10 minutes. Tyramine (0.5 M) was added and incubation proceeded for 45 minutes. The reaction contents were exposed to air. A sample of enzyme preparation (with 125 μl of plasma) that had been added perchloric acid 2 M at the end of the pre-incubation period was used as blank. A blank for each of the tested compounds was used. For octopamine standard curve, perchloric acid 2 M was replaced by increasing concentrations of octopamine prepared in perchloric acid 2 M (0.5, 1, 2.5, 5, 7.5, 10, 15, 20 μg/ml, final concentration). The incubation was stopped by adding 200 μl of 2 M molar perchloric acid, and the mixture was centrifuged at 9000 g for 5 min. The supernatant fluid (800 μL) was transferred to a column (SPE cartridge ISOLUTE SCX-3, 100 mg) and centrifuged at 150 g for 2 min. The column was washed two more times with 0.5 ml of ultrapure water by centrifuging at 150 g for 2 min. The adsorbed octopamine was eluted twice with 0.3 ml of 4 M ammonium hydroxide by centrifuging at 150 g for 2 min. Octopamine in the eluate was then converted to p-hydroxybenzaldehyde by adding 200 μl of sodium periodate (2%) and incubating for 6 min. Excess periodate was than reduced by adding 200 μl of sodium metabisulfite (10%). Absorbance was measured at […] in a 96-well plate by use of a SpectraMAX plus 384 (Molecular Devices) with software SOFTmax® PRO Software 5.3 spectrophotometer. Absorbance was linear with octopamine concentration from 0.5 to 20 μg/ml. Dopamine beta hydroxylase activity is determined as nmol of octopamine formed/ml of plasma/hour and effect of compounds is presented as % control.
Results are reported in the table below as activity in % of control at the inhibitor concentration tested.

CCOC(=O)Cc1[nH]c(=S)n2c1C[C@H](c1cc(Cl)ccc1F)C2 [Example 64, Ethyl (R)-2-(6-(5-chloro-2-fluorophenyl)-3-thioxo-2,5,6,7-tetrahydro-3H-pyrrolo[1,2-c]imidazol-1-yl)acetate]
Plasma (0.1 μM), activity in % of control: 88.4 % of control
Plasma (1 μM), activity in % of control: 47.2 % of control

CCOC(=O)Cc1[nH]c(=S)n2c1C[C@H](c1c(F)cccc1F)C2 [Example 65, Ethyl (R)-2-(6-(2,6-difluorophenyl)-3-thioxo-2,5,6,7-tetrahydro-3H-pyrrolo[1,2-c]imidazol-1-yl)acetate]
Plasma (0.1 μM), activity in % of control: 64.5 % of control
Plasma (1 μM), activity in % of control: 12.6 % of control

CC(C)NC(=O)Cc1[nH]c(=S)n2c1[C@@H]1C[C@]1(c1cc(Cl)ccc1F)C2 [Example 67, 2-((5aS,6aR)-5a-(5-chloro-2-fluorophenyl)-3-thioxo-2,3,5,5a,6,6a-hexahydrocyclopropa[3,4]pyrrolo[1,2-c]imidazol-1-yl)-N-isopropylacetamide]
Plasma (0.1 μM), activity in % of control: 76.1 % of control
Plasma (1 μM), activity in % of control: 13.2 % of control

CNC(=O)Cc1[nH]c(=S)n2c1[C@@H]1C[C@]1(c1cc(F)cc(Cl)c1)C2 [Example 68, 2-((5aS,6aR)-5a-(3-chloro-5-fluorophenyl)-3-thioxo-2,3,5,5a,6,6a-hexahydrocyclopropa[3,4]pyrrolo[1,2-c]imidazol-1-yl)-N-methylacetamide]
Plasma (0.1 μM), activity in % of control: 55.6 % of control
Plasma (1 μM), activity in % of control: 13.5 % of control

CN(C)C(=O)Cc1[nH]c(=S)n2c1[C@@H]1C[C@]1(c1cc(F)cc(Cl)c1)C2 [Example 69, 2-((5aS,6aR)-5a-(3-chloro-5-fluorophenyl)-3-thioxo-2,3,5,5a,6,6a-hexahydrocyclopropa[3,4]pyrrolo[1,2-c]imidazol-1-yl)-N,N-dimethylacetamide]
Plasma (0.1 μM), activity in % of control: 82.1 % of control
Plasma (1 μM), activity in % of control: 24.1 % of control

O=C(Cc1[nH]c(=S)n2c1[C@@H]1C[C@]1(c1cc(Br)ccc1F)C2)N1CCCC1 [Example 70, 2-((5aS,6aR)-5a-(5-bromo-2-fluorophenyl)-3-thioxo-2,3,5,5a,6,6a-hexahydrocyclopropa[3,4]pyrrolo[1,2-c]imidazol-1-yl)-1-(pyrrolidin-1-yl)ethan-1-one]
Plasma (0.1 μM), activity in % of control: 36.6 % of control
Plasma (1 μM), activity in % of control: 2.9 % of control

CN(C)CCCNC(=O)Cc1[nH]c(=S)n2c1C[C@H](c1c(F)c(F)cc(F)c1F)C2.Cl [Example 71, (R)—N-(3-(dimethylamino)propyl)-2-(6-(2,3,5,6-tetrafluorophenyl)-3-thioxo-2,5,6,7-tetrahydro-3H-pyrrolo[1,2-c]imidazol-1-yl)acetamide Hydrochloride]
Plasma (0.1 μM), activity in % of control: 57.0 % of control
Plasma (1 μM), activity in % of control: 11.9 % of control

O=C(Cc1[nH]c(=S)n2c1C[C@H](c1c(F)c(F)cc(F)c1F)C2)NCCO [Example 72, (R)—N-(2-hydroxyethyl)-2-(6-(2,3,5,6-tetrafluorophenyl)-3-thioxo-2,5,6,7-tetrahydro-3H-pyrrolo[1,2-c]imidazol-1-yl)acetamide]
Plasma (0.1 μM), activity in % of control: 90.8 % of control
Plasma (1 μM), activity in % of control: 28.9 % of control

COCCNC(=O)Cc1[nH]c(=S)n2c1C[C@H](c1c(F)c(F)cc(F)c1F)C2 [Example 73, (R)—N-(2-methoxyethyl)-2-(6-(2,3,5,6-tetrafluorophenyl)-3-thioxo-2,5,6,7-tetrahydro-3H-pyrrolo[1,2-c]imidazol-1-yl)acetamide]
Plasma (0.1 μM), activity in % of control: 75.9 % of control
Plasma (1 μM), activity in % of control: 19.1 % of control

O=C(Cc1[nH]c(=S)n2c1C[C@@H](c1cc(Br)ccc1F)C2)NC1CCCC1 [Example 74, (S)-2-(6-(5-bromo-2-fluorophenyl)-3-thioxo-2,5,6,7-tetrahydro-3H-pyrrolo[1,2-c]imidazol-1-yl)-N-cyclopentylacetamide]
Plasma (0.1 μM), activity in % of control: 70.3 % of control
Plasma (1 μM), activity in % of control: 8.1 % of control

O=C(Cc1[nH]c(=S)n2c1C[C@H](c1cc(Cl)ccc1F)C2)N[C@@H]1CCOC1 [Example 75, 2-((R)-6-(5-chloro-2-fluorophenyl)-3-thioxo-2,5,6,7-tetrahydro-3H-pyrrolo[1,2-c]imidazol-1-yl)-N—((R)-tetrahydrofuran-3-yl)acetamide]
Plasma (0.1 μM), activity in % of control: 91.0 % of control
Plasma (1 μM), activity in % of control: 56.3 % of control

O=C(Cc1[nH]c(=S)n2c1C[C@H](c1c(F)cccc1F)C2)NC1CCCC1 [Example 76, (R)—N-cyclopentyl-2-(6-(2,6-difluorophenyl)-3-thioxo-2,5,6,7-tetrahydro-3H-pyrrolo[1,2-c]imidazol-1-yl)acetamide]
Plasma (0.1 μM), activity in % of control: 65.8 % of control
Plasma (1 μM), activity in % of control: 13.1 % of control

O=C(Cc1[nH]c(=S)n2c1C[C@H](c1c(F)cccc1F)C2)N[C@@H]1CCOC1 [Example 77, 2-((R)-6-(2,6-difluorophenyl)-3-thioxo-2,5,6,7-tetrahydro-3H-pyrrolo[1,2-c]imidazol-1-yl)-N—((R)-tetrahydrofuran-3-yl)acetamide]
Plasma (0.1 μM), activity in % of control: 87.2 % of control
Plasma (1 μM), activity in % of control: 38.9 % of control

O=C(Cc1[nH]c(=S)n2c1C[C@H](c1c(F)c(F)cc(F)c1F)C2)NC1CC1 [Example 78, (R)—N-cyclopropyl-2-(6-(2,3,5,6-tetrafluorophenyl)-3-thioxo-2,5,6,7-tetrahydro-3H-pyrrolo[1,2-c]imidazol-1-yl)acetamide]
Plasma (0.1 μM), activity in % of control: 77.3 % of control
Plasma (1 μM), activity in % of control: 24.4 % of control

O=C(Cc1[nH]c(=S)n2c1C[C@H](c1c(F)c(F)cc(F)c1F)C2)NCC1CC1 [Example 79, (R)—N-(cyclopropylmethyl)-2-(6-(2,3,5,6-tetrafluorophenyl)-3-thioxo-2,5,6,7-tetrahydro-3H-pyrrolo[1,2-c]imidazol-1-yl)acetamide]
Plasma (0.1 μM), activity in % of control: 54.3 % of control
Plasma (1 μM), activity in % of control: 10.3 % of control

O=C(Cc1[nH]c(=S)n2c1C[C@H](c1c(F)c(F)cc(F)c1F)C2)NC1CCC1 [Example 80, (R)—N-cyclobutyl-2-(6-(2,3,5,6-tetrafluorophenyl)-3-thioxo-2,5,6,7-tetrahydro-3H-pyrrolo[1,2-c]imidazol-1-yl)acetamide]
Plasma (0.1 μM), activity in % of control: 60.7 % of control
Plasma (1 μM), activity in % of control: 9.8 % of control

CN1CCN(C(=O)Cc2[nH]c(=S)n3c2C[C@H](c2c(F)c(F)cc(F)c2F)C3)CC1 [Example 81, (R)-1-(4-methylpiperazin-1-yl)-2-(6-(2,3,5,6-tetrafluorophenyl)-3-thioxo-2,5,6,7-tetrahydro-3H-pyrrolo[1,2-c]imidazol-1-yl)ethan-1-one]
Plasma (0.1 μM), activity in % of control: 63.1 % of control
Plasma (1 μM), activity in % of control: 15.9 % of control
